Assay results reported in patent US20070081967A1, “Revitalizing hair follicles with total parenteral nutrition or hyperalimentation for maximum hair growth” (priority 2005, published 2007).
“Also recorded” adds a separate entry of the source.

Legend:
[1] = test system: alopecia; conditions: cited from earlier work
[2] = Solubility of ingredients in solvents during preparation; conditions: qualitative
Experimental: 3 grams of azelaic acid was ground up into a powder from “hairs” of this dicarboxylic acid. […] Next, 50 mg of vinpocetine is added to the mortar and also ground to a powder. The use of 10 mg tablets of vinpocetine can be used if the raw material in not available. […] At this point 26 cc (or ml) of isopropyl alcohol is added to the mortar and mixed to form the first suspension. […] These two powders are soluble in water which 5 ml of sterile water is added and stirred. At the point the two products can be combines with the final addition of 12 ml of propylene glycol. […] The final volume of 60 ml can be achieved by the “qs” or “adding up to” the 60 ml mark with sterile water.

| SMILES | time to loss of new hair after treatment is stopped ([1]; after finasteride treatment is stopped) | time to occurrence of hair growth ([1]; balding men, after start of use) | success rate for treating alopecia ([1]; reported success rate) | solubility in isopropyl alcohol [2] | solubility in organic solvents ([2]; solvents named in value) |
| --- | --- | --- | --- | --- | --- |
| CC(C)(C)NC(=O)[C@H]1CC[C@H]2[C@@H]3CC[C@H]4NC(=O)C=C[C@]4(C)[C@H]3CC[C@]12C [Finasteride] | ≤ 1 year | about 3 months | 40% |  |  |
| CCOC(=O)C1=C[C@]2(CC)CCCN3CCc4c(n1c1ccccc41)[C@@H]32 [Vinpocetine, 14-ethoxycarbonyl-3 alpha, 16 alpha-ethyl-14, 15-ebumamine] |  |  |  | slightly soluable | only soluable in DMSO, 100% ethanol or acetone; also recorded: only soluble in DMSO, 100% ethanol or acetone |
